These are literature values, as cited in patent US20050256196A1, “Decreasing brain neuronal glutamate levels using alpha-keto branched chain amino acids” (Odessa Pharma, priority 2004, published 2005).

For series [1] the following is noted: in vivo.
The target of series [2] is T1, glutamine synthetase (Rattus norvegicus, UniProt P09606). Also noted: known convulsant doses of MSO (MW 179) to rats; host or cells: rats, in vivo (endogenous enzyme).
For series [3], the target named is T1, glutamine synthetase.
In series [4] the target is T1, glutamine synthetase. Particulars: normal animals after MSO; reduced from 5.6.
The mark [5] stands for this setting: rats, known convulsant doses of MSO.

T1 sequence (P09606 2-373 limits assumed): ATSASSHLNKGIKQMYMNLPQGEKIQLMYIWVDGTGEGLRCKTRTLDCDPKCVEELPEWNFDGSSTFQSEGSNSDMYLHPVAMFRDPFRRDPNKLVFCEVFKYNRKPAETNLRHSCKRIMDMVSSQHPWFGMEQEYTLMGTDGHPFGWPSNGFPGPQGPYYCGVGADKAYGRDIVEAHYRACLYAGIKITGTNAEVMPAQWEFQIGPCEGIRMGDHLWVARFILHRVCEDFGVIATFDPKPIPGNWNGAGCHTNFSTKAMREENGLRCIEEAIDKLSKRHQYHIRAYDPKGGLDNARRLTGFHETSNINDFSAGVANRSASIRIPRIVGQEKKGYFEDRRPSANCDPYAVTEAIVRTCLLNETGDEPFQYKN

Take `CP(=O)(O)CCC(N)C(=O)O` [Glufosinate, ammonium-D-L-homoalanine-4-yl(methyl)-phosphinate]: the “crossing of the blood-brain barrier” value in series [1] is listed as “does not cross the blood-brain barrier”.
`CSCC[C@H](N)C(=O)O` [L-methionine]: at glutamine synthetase [2] (setting [5]), the “convulsant activity of MSO on simultaneous administration of L-methionine” value was “prevents the convulsant activity” and the “glutamine synthetase inhibitory activity of MSO on simultaneous administration of L-methionine” value was “preserves the glutamine synthetase inhibitory activity”.
For the compound `CS(=N)(=O)CC[C@H](N)C(=O)O` (stereo partly drawn) [MSO, L-methionine S-sulfoximine], the “reduction of nerve terminal glutamate levels” value on glutamine synthetase [3] is on record as 52%. For the same compound, the “reduction of brain astrocyte levels of glutamine” value on glutamine synthetase [3] (normal animals) is given as 66%. In addition, on glutamine synthetase [4], the “brain levels of glutamine” value is listed as 1.8 mmol/kg brain. Moreover, the convulsant effect entry at glutamine synthetase [2] (depending on the dosage) was “can cause periodic convulsions”.
